The text below walks through data of ChEMBL document CHEMBL1126329, “Azasugar and glycal inhibitors of -L-fucosidase” (Bioorg Med Chem Lett, 1992).

In the first assay the target is T1, Tissue alpha-L-fucosidase (Homo sapiens) (UniProt P04066).
T1 sequence (whole entry): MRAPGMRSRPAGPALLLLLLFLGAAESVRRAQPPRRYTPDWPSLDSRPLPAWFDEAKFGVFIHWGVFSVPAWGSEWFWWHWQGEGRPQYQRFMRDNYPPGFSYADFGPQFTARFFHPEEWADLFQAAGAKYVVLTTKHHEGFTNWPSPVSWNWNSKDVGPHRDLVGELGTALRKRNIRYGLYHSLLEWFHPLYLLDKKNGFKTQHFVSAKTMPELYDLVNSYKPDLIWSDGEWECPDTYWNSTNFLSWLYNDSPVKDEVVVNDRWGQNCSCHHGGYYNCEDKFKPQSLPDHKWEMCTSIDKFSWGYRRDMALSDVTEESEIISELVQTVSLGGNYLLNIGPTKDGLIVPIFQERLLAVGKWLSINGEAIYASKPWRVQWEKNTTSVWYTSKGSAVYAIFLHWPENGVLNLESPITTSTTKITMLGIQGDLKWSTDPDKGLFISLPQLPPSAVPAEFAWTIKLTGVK
Description: Slope inhibition constant against Alpha-Fucosidase; Uncompetitive inhibition
Compound `Oc1ccccc1` gave a Kis of 0.18 mM.

The next assay deals with T1, Tissue alpha-L-fucosidase (Homo sapiens). The source holds these as a separate data set.
Description: Intecept inhibition constant against Alpha-Fucosidase; Noncompetitive inhibition
As to `Oc1ccccc1`, the Kii turned out to be 112 mM.

For another assay, the target named is T2, Tissue alpha-L-fucosidase (Homo sapiens, UniProt P04066).
T2 sequence (P04066 whole entry): T1 sequence (whole entry)
The assay is described as follows: Inhibition constant against Alpha-Fucosidase.
As for `OC1C=COC(c2ccccc2)C1OCc1ccccc1` (configuration not stated), the Ki was over 100 mM. In the case of `OCC1NC(CO)C(O)C1O` (configuration not stated), the Ki turned out to be 0.91 mM. Take `CN1CC(O)C(O)C(O)C1CO` (configuration not stated): affinity was put at a Ki of 5.3 mM.

With `CC(=O)C1C(O)C=COC1C` (configuration not stated), the affinity corresponds to a Ki of 0.09 mM.

On to `C[C@@H]1N[C@@H](CO)[C@H](O)[C@@H]1O`, for which the Ki came to 0.004 mM. In the case of `C[C@@H]1OC=C[C@@H](O)[C@@H]1O`, the Ki is 0.05 mM. This Ki lies about 12-fold higher than the previous one. Same read-out and setting: the value for `CC1=COC(c2ccccc2)C(C)C1O` (stereo in doubt; 26) was over 100 mM; that for `CC(=O)C1C(O)C=COC1c1ccccc1` (configuration not stated) was over 100 mM. The same measure, in the same setting: the figure for `OC1C=COC(c2ccccc2)C1` (configuration not stated) is over 100 mM; for `CC1=COC(c2ccccc2)C(C)C1O` (stereo in doubt; 21) it is over 100 mM.

The next assay addresses T2, Tissue alpha-L-fucosidase. Kind of assay: Inhibition constant against Alpha-Fucosidase; Uncompetitive inhibition.
Regarding `OC1C=COC(c2ccccc2)C1O` (stereo in doubt; 25), the affinity, expressed as Ki, was 22 mM. `CC(=O)C1C(O)C=COC1C` (configuration not stated) displayed a Ki of 26 mM.

In turn, `OC1C=COC(c2ccccc2)C1O` (stereo in doubt; 23) registered a Ki of 83 mM. As for `C[C@H]1OC=C[C@@H](O)[C@H]1O` (stereo in doubt; 24), the affinity, expressed as Ki, was 23 mM. Against the preceding compound, the Ki is about 3.6-fold lower. In turn, `C[C@H]1OC=C[C@@H](O)[C@H]1O` (stereo in doubt; 19) returned a Ki of 35 mM.

In general, Ki refers to a measure of affinity in units of concentration, obtained from inhibition or displacement.
